Peptide text beside a SMILES is read from it.
What was measured:
[1] = system: Escherichia coli ATCC 25922; details: ATCC 25922
Procedure, shortened: (§1)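 Standardized inocula (0.5 McFarland in saline, then diluted in MHII broth to approximately 5×10^5 CFU/mL) were exposed to two-fold dilution series of each peptide in the presence of polysorbate 80 (0.002% final).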

[2] = system: Escherichia coli MCR-1 Af 45; details: MCR-1 Af 45
Procedure, shortened: as §1

[3] = system: Klebsiella pneumoniae SSI3010; details: SSI3010
Procedure, shortened: as §1

[4] = system: human red blood cells (hRBC); test: Hemolysis of human red blood cells; assay type: cell-based; details: red cells of human, 1 h
Procedure, shortened: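 Percent hemolysis is OD540 of peptide-treated supernatant relative to water-lysed cells. Each peptide was tested at 200 μg/mL against 20% (v/v) washed human erythrocytes. Incubation was 1 h at 37 °C, 300 rpm.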

SMILES | Escherichia coli ATCC 25922 MIC [1] | Escherichia coli MCR-1 Af 45 MIC [2] | Klebsiella pneumoniae SSI3010 MIC [3] | Hemolysis at 0.2 g/L [4]
CC[C@H](C)[C@H](NC(=O)[C@@H](NC(=O)[C@@H]1CCCN1C(=O)[C@@H](NC(=O)CN(C)C(=O)CN(C)C(=O)[C@@H](N)CCCCN)C(C)C)[C@@H](C)CC)C(=O)N[C@@H](Cc1ccc(O)cc1)C(=O)N[C@@H]1C(=O)N[C@@H](CC(N)=O)C(=O)N[C@@H](CCCNC(=N)N)C(=O)N[C@@H](CCN)C(=O)N[C@@H]([C@@H](C)O)C(=O)N[C@H](CCN)C(=O)N[C@@H](CCCCN)C(=O)N[C@H](C(=O)N[C@@H](CCN)C(=O)N[C@@H](CCCNC(=N)N)C(=O)N[C@@H](Cc2ccc(O)cc2)C(=O)O)CSSC1(C)C [Example 95, Lys-Sar-Sar-Val-Pro-Ile-Ile-Tyr-Pen-Asn-Arg-Dab-Thr-^DDab-Lys-Cys-Dab-Arg-Tyr] (HELM PEPTIDE1{K.[Sar].[Sar].V.P.I.I.Y.[Pen].N.R.[Dab].T.[NCC[C@@H](N[*:1])C(=O)[*:2]].K.C.[Dab].R.Y}$PEPTIDE1,PEPTIDE1,9:R3-16:R3$$$V2.0) | 0.125 µg/mL | 0.125 µg/mL | 0.25 µg/mL | 0%
CC[C@H](C)[C@H](NC(=O)[C@@H](NC(=O)[C@@H]1CCCN1C(=O)[C@@H](NC(=O)[C@@H]1CCCN1C(=O)[C@H](CCCCN)NC(=O)CNCCN)C(C)C)[C@@H](C)CC)C(=O)N[C@@H](Cc1ccc(O)cc1)C(=O)N[C@H]1CSSC[C@@H](C(=O)N[C@@H](CCN)C(=O)N[C@@H](CCCNC(=N)N)C(=O)N[C@@H](Cc2ccc(O)cc2)C(=O)O)NC(=O)[C@H](CCCCN)NC(=O)[C@@H](CCN)NC(=O)[C@H]([C@@H](C)O)NC(=O)[C@H](CCN)NC(=O)[C@H](CCCNC(=N)N)NC(=O)[C@H](CC(N)=O)NC1=O [Example 96] (HELM PEPTIDE1{[NCCNCC(=O)[*:2]].K.P.V.P.I.I.Y.C.N.R.[Dab].T.[NCC[C@@H](N[*:1])C(=O)[*:2]].K.C.[Dab].R.Y}$PEPTIDE1,PEPTIDE1,9:R3-16:R3$$$V2.0) | 0.0625 µg/mL | 0.0625 µg/mL | 0.125 µg/mL | 0%
CC[C@H](C)[C@H](NC(=O)[C@@H](NC(=O)[C@@H]1CCCN1C(=O)[C@@H](NC(=O)[C@@H]1CCCN1C(=O)[C@H](CCCCN)NC(=O)CNCCCCN)C(C)C)[C@@H](C)CC)C(=O)N[C@@H](Cc1ccc(O)cc1)C(=O)N[C@H]1CSSC[C@@H](C(=O)N[C@@H](CCN)C(=O)N[C@@H](CCCNC(=N)N)C(=O)N[C@@H](Cc2ccc(O)cc2)C(=O)O)NC(=O)[C@H](CCCCN)NC(=O)[C@@H](CCN)NC(=O)[C@H]([C@@H](C)O)NC(=O)[C@H](CCN)NC(=O)[C@H](CCCNC(=N)N)NC(=O)[C@H](CC(N)=O)NC1=O [Example 97] (HELM PEPTIDE1{[NCCCCNCC(=O)[*:2]].K.P.V.P.I.I.Y.C.N.R.[Dab].T.[NCC[C@@H](N[*:1])C(=O)[*:2]].K.C.[Dab].R.Y}$PEPTIDE1,PEPTIDE1,9:R3-16:R3$$$V2.0; N-terminus assumed) | ≤0.03125 µg/mL | ≤0.03125 µg/mL | ≤0.03125 µg/mL | 0%
CC[C@H](C)[C@H](NC(=O)[C@@H](NC(=O)[C@@H]1CCCN1C(=O)[C@@H](NC(=O)[C@@H]1CCCN1C(=O)[C@H](CCCCN)NC(=O)CNCCCN)C(C)C)[C@@H](C)CC)C(=O)N[C@@H](Cc1ccc(O)cc1)C(=O)N[C@H]1CSSC[C@@H](C(=O)N[C@@H](CCN)C(=O)N[C@@H](CCCNC(=N)N)C(=O)N[C@@H](Cc2ccc(O)cc2)C(=O)O)NC(=O)[C@H](CCCCN)NC(=O)[C@@H](CCN)NC(=O)[C@H]([C@@H](C)O)NC(=O)[C@H](CCN)NC(=O)[C@H](CCCNC(=N)N)NC(=O)[C@H](CC(N)=O)NC1=O [Example 98] (HELM PEPTIDE1{[NCCCNCC(=O)[*:2]].K.P.V.P.I.I.Y.C.N.R.[Dab].T.[NCC[C@@H](N[*:1])C(=O)[*:2]].K.C.[Dab].R.Y}$PEPTIDE1,PEPTIDE1,9:R3-16:R3$$$V2.0) | ≤0.03125 µg/mL | ≤0.03125 µg/mL | 0.0625 µg/mL | 0%
CC[C@H](C)[C@H](NC(=O)[C@@H](NC(=O)[C@@H]1CCCN1C(=O)[C@@H](NC(=O)[C@@H]1CCCN1C(=O)CN(CCN)C(=O)[C@@H](N)CCCCN)C(C)C)[C@@H](C)CC)C(=O)N[C@@H](Cc1ccc(O)cc1)C(=O)N[C@H]1CSSC[C@@H](C(=O)N[C@@H](CCN)C(=O)N[C@@H](CCCNC(=N)N)C(=O)N[C@@H](Cc2ccc(O)cc2)C(=O)O)NC(=O)[C@H](CCCCN)NC(=O)[C@@H](CCN)NC(=O)[C@H]([C@@H](C)O)NC(=O)[C@H](CCN)NC(=O)[C@H](CCCNC(=N)N)NC(=O)[C@H](CC(N)=O)NC1=O [Example 99] (HELM PEPTIDE1{K.[NCCN(CC(=O)[*:2])[*:1]].P.V.P.I.I.Y.C.N.R.[Dab].T.[NCC[C@@H](N[*:1])C(=O)[*:2]].K.C.[Dab].R.Y}$PEPTIDE1,PEPTIDE1,9:R3-16:R3$$$V2.0; N-terminus assumed) | ≤0.03125 µg/mL | ≤0.03125 µg/mL | 0.0625 µg/mL | 0%
CC[C@H](C)[C@H](NC(=O)[C@@H](NC(=O)[C@@H]1CCCN1C(=O)[C@@H](NC(=O)[C@@H]1CCCN1C(=O)CN(CCCCN)C(=O)[C@@H](N)CCCCN)C(C)C)[C@@H](C)CC)C(=O)N[C@@H](Cc1ccc(O)cc1)C(=O)N[C@H]1CSSC[C@@H](C(=O)N[C@@H](CCN)C(=O)N[C@@H](CCCNC(=N)N)C(=O)N[C@@H](Cc2ccc(O)cc2)C(=O)O)NC(=O)[C@H](CCCCN)NC(=O)[C@@H](CCN)NC(=O)[C@H]([C@@H](C)O)NC(=O)[C@H](CCN)NC(=O)[C@H](CCCNC(=N)N)NC(=O)[C@H](CC(N)=O)NC1=O [Example 100] (HELM PEPTIDE1{K.[NCCCCN(CC(=O)[*:2])[*:1]].P.V.P.I.I.Y.C.N.R.[Dab].T.[NCC[C@@H](N[*:1])C(=O)[*:2]].K.C.[Dab].R.Y}$PEPTIDE1,PEPTIDE1,9:R3-16:R3$$$V2.0; N-terminus assumed) | 0.03125 µg/mL | ≤0.03125 µg/mL | 0.0625 µg/mL | 0%
CC[C@H](C)[C@H](NC(=O)[C@@H](NC(=O)[C@@H]1CCCN1C(=O)[C@@H](NC(=O)[C@@H]1CCCN1C(=O)CN(CCCN)C(=O)[C@@H](N)CCCCN)C(C)C)[C@@H](C)CC)C(=O)N[C@@H](Cc1ccc(O)cc1)C(=O)N[C@H]1CSSC[C@@H](C(=O)N[C@@H](CCN)C(=O)N[C@@H](CCCNC(=N)N)C(=O)N[C@@H](Cc2ccc(O)cc2)C(=O)O)NC(=O)[C@H](CCCCN)NC(=O)[C@@H](CCN)NC(=O)[C@H]([C@@H](C)O)NC(=O)[C@H](CCN)NC(=O)[C@H](CCCNC(=N)N)NC(=O)[C@H](CC(N)=O)NC1=O [Example 101] (HELM PEPTIDE1{K.[NCCCN(CC(=O)[*:2])[*:1]].P.V.P.I.I.Y.C.N.R.[Dab].T.[NCC[C@@H](N[*:1])C(=O)[*:2]].K.C.[Dab].R.Y}$PEPTIDE1,PEPTIDE1,9:R3-16:R3$$$V2.0) | 0.0625 µg/mL | 0.03125 µg/mL | 0.0625 µg/mL | 0%
CC[C@H](C)[C@H](NC(=O)CN(CCN)C(=O)[C@@H](NC(=O)[C@@H]1CCCN1C(=O)[C@H](CCCCN)NC(=O)[C@@H](N)CCCCN)C(C)C)C(=O)N[C@H](C(=O)N[C@@H](Cc1ccc(O)cc1)C(=O)N[C@H]1CSSC[C@@H](C(=O)N[C@@H](CCN)C(=O)N[C@@H](CCCNC(=N)N)C(=O)N[C@@H](Cc2ccc(O)cc2)C(=O)O)NC(=O)[C@H](CCCCN)NC(=O)[C@@H](CCN)NC(=O)[C@H]([C@@H](C)O)NC(=O)[C@H](CCN)NC(=O)[C@H](CCCNC(=N)N)NC(=O)[C@H](CC(N)=O)NC1=O)[C@@H](C)CC [Example 102, Lys-Lys-Pro-Val-Ndab-Ile-Ile-Tyr-Cys-Asn-Arg-Dab-Thr-^DDab-Lys-Cys-Dab-Arg-Tyr] (HELM PEPTIDE1{K.K.P.V.[NCCN(CC(=O)[*:2])[*:1]].I.I.Y.C.N.R.[Dab].T.[NCC[C@@H](N[*:1])C(=O)[*:2]].K.C.[Dab].R.Y}$PEPTIDE1,PEPTIDE1,9:R3-16:R3$$$V2.0) | 0.0625 µg/mL | 0.0625 µg/mL | 0.0625 µg/mL | 0%
CC[C@H](C)[C@H](NC(=O)[C@@H](NC(=O)[C@@H]1CCCN1C(=O)[C@@H](NC(=O)[C@@H]1CCCN1C(=O)[C@H](CCCCN)NC(=O)[C@@H](N)CCCCN)C(C)C)[C@@H](C)CC)C(=O)N[C@@H](Cc1ccc(O)cc1)C(=O)N[C@H]1CSSC(C)(C)[C@@H](C(=O)N[C@@H](CCN)C(=O)N[C@@H](CCCNC(=N)N)C(=O)N[C@@H](Cc2ccc(O)cc2)C(=O)O)NC(=O)[C@H](CCCCN)NC(=O)[C@@H](CCN)NC(=O)[C@H]([C@@H](C)O)NC(=O)[C@H](CCN)NC(=O)[C@H](CCCNC(=N)N)NC(=O)[C@H](CC(N)=O)NC1=O [Example 103] (HELM PEPTIDE1{K.K.P.V.P.I.I.Y.C.N.R.[Dab].T.[NCC[C@@H](N[*:1])C(=O)[*:2]].K.[Pen].[Dab].R.Y}$PEPTIDE1,PEPTIDE1,9:R3-16:R3$$$V2.0) | ≤0.03125 µg/mL | ≤0.03125 µg/mL | 0.0625 µg/mL | 0%

— patent publication US20230295234A1, “ANTIMICROBIAL PEPTIDOMIMETICS” (SPEXIS AG, priority 2020, published 2023)
